Assay results: patent US9273057B2 (Bristol-Myers Squibb Company, priority 2012, dated 2016)

Target: CK2A1 (CK2α/β) (Homo sapiens, UniProt P68400)
Assay: CK2 kinase assay, CK2A1 (CK2α/β)
Assay type: biochemical
Settings: Table A; read-out: CK2A1 (CK2α/β) (IC50)

Chain of CK2A1 (CK2α/β) (P68400 whole entry, species assumed): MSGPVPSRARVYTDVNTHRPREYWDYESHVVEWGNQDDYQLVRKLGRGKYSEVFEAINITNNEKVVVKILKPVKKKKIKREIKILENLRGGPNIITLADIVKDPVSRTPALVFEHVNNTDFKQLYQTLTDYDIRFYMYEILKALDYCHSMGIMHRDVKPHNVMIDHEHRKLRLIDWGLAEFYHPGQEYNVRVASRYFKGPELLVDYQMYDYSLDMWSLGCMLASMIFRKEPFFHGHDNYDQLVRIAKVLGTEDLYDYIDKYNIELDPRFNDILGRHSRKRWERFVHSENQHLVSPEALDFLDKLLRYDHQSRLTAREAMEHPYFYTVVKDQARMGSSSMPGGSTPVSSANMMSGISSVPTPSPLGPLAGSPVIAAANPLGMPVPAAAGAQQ
Chain of CK2A1 (CK2α/β) (P67870 whole entry partner, species assumed): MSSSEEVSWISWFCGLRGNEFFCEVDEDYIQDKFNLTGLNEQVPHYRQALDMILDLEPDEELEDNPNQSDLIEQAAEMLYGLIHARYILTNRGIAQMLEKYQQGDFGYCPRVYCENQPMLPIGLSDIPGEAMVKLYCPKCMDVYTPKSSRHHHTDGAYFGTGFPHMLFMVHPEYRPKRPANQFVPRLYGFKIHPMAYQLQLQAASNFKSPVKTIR

SMILES	IC50 [nM]
N#Cc1cnc2c(NC3CC3)nc(Nc3cc(C(F)F)cc(C4CCN(C5COC5)CC4)c3Cl)nn12 [Example 407, 2-((2-chloro-5-(difluoromethyl)-3-(1-(3-oxetanyl)-4-piperidinyl)phenyl)amino)-4-(cyclopropylamino)imidazo[2,1-f][1,2,4]triazine-7-carbonitrile]	1.76
N#Cc1cc(Nc2nc(NC3CC3)c3ncc(C#N)n3n2)c(Cl)c(N2CCC3(CC2)CN(CC(N)=O)C3)c1 [Example 800, 2-(7-(2-chloro-5-cyano-3-((7-cyano-4-(cyclopropylamino)imidazo[2,1-f][1,2,4]triazin-2-yl)amino)phenyl)-2,7-diazaspiro[3.5]nonan-2-yl)acetamide]	2.14
CC(C)(C)[C@H](N)C(=O)N1CC(N2CCN(c3cc(C#N)cc(Nc4nc(NC5CC5)c5ncc(C#N)n5n4)c3Cl)CC2)C1 [Example 505, 2-{[3-(4-{1-[(2S)-2-amino-3,3-dimethylbutanoyl]azetidin-3-yl}piperazin-1-yl)-2-chloro-5-cyanophenyl]amino}-4-(cyclopropylamino)imidazo[2,1-f][1,2,4]triazine-7-carbonitrile]	5.42
N#Cc1cc(Nc2nc(NC3CC3)c3ncc(C#N)n3n2)c(Cl)c(C(O)C(F)(F)F)c1 (racemic) [Example 680, (+/−)-2-((2-chloro-5-cyano-3-(2,2,2-trifluoro-1-hydroxyethyl)phenyl)amino)-4-(cyclopropylamino)imidazo[2,1-f][1,2,4]triazine-7-carbonitrile]	3.73
CC(C)(O)C(=O)N1CC(N2CCN(c3cc(C#N)cc(Nc4nc(NC5CC5)c5ncc(C#N)n5n4)c3Cl)CC2)C1 [Example 484, 2-[(2-chloro-5-cyano-3-{4-[1-(2-hydroxy-2-methylpropanoyl)azetidin-3-yl]piperazin-1-yl}phenyl)amino]-4-(cyclopropylamino)imidazo[2,1-f][1,2,4]triazine-7-carbonitrile]	0.81
N#Cc1cc(Nc2nc(NC3CC3)c3ncc(C#N)n3n2)c(Cl)c(N2CC3(CCN(CC(O)CF)CC3)C2)c1 (racemic) [Example 807, (+/−)-2-((2-chloro-5-cyano-3-(7-(3-fluoro-2-hydroxypropyl)-2,7-diazaspiro[3.5]nonan-2-yl)phenyl)amino)-4-(cyclopropylamino)imidazo[2,1-f][1,2,4]triazine-7-carbonitrile]	0.73
CCNc1nc(Nc2cc(C#N)cc(C3CN(C(=O)CC#N)C3)c2Cl)nn2c(C#N)cnc12 [Example 369, 2-((2-chloro-5-cyano-3-(1-(2-cyanoacetyl)azetidin-3-yl)phenyl)amino)-4-(ethylamino)imidazo[2,1-f][1,2,4]triazine-7-carbonitrile]	1.58
CC(=O)N[C@@H]1CN(c2cc(C#N)cc(Nc3nc(NC4CC4)c4ncc(C#N)n4n3)c2Cl)C[C@H]1O (racemic) [Example 10, (+/−) N-((3R,4R)-1-(2-chloro-5-cyano-3-((7-cyano-4-(cyclopropylamino)imidazo [2,1-f][1,2,4]triazin-2-yl)amino)phenyl)-4-hydroxy-3-pyrrolidinyl)acetamide]	0.51
CO[C@H](C)C(=O)N1CC(N2CCN(c3cc(C#N)cc(Nc4nc(NC5CC5)c5ncc(C#N)n5n4)c3Cl)CC2)C1 [Example 513, 2-{[2-chloro-5-cyano-3-(4-{1-[(2R)-2-methoxypropanoyl]azetidin-3-yl}piperazin-1-yl)phenyl]amino}-4-(cyclopropylamino)imidazo[2,1-f][1,2,4]triazine-7-carbonitrile]	3.08
CCNc1nc(Nc2cc(C#N)cc(C3CCN(C(C)=O)CC3)c2Cl)nn2c(C#N)cnc12 [Example 354, 2-((3-(1-acetyl-4-piperidinyl)-2-chloro-5-cyanophenyl)amino)-4-(ethylamino)imidazo[2,1-f] [1,2,4]triazine-7-carbonitrile]	0.52
CCNc1nc(Nc2cc(C#N)cc(N3CCC(NC)C3)c2Cl)nn2c(C#N)cnc12 (racemic) [Example 362, (+/−) 2-((2-chloro-5-cyano-3-(3-(methylamino)-1-pyrrolidinyl)phenyl)amino)-4-(ethylamino)imidazo[2,1-f][1,2,4]triazine-7-carbonitrile]	0.84
CCNc1nc(Nc2cc(C#N)cc(N3CC(N4CCN(C)CC4)C3)c2F)nn2c(C#N)cnc12 [Example 383, 2-((5-cyano-2-fluoro-3-(3-(4-methylpiperazin-1-yl)azetidin-1-yl)phenyl)amino)-4-(ethylamino)imidazo[2,1-f][1,2,4]triazine-7-carbonitrile]	0.77
CN(CCC#N)Cc1cc(C#N)cc(Nc2nc(NC3CC3)c3ncc(C#N)n3n2)c1Cl [Example 464, 2-[(2-chloro-5-cyano-3-{[(2-cyanoethyl)(methyl)amino]methyl}phenyl)amino]-4-(cyclopropylamino)imidazo[2,1-f][1,2,4]triazine-7-carbonitrile]	0.57
CCNc1nc(Nc2ccc3c(c2)c(C#N)cn3C2CCN([C@H]3COC[C@@H]3O)CC2)nn2c(C#N)cnc12 [Example 826, 2-((3-cyano-1-(1-((3S,4R)-4-hydroxytetrahydrofuran-3-yl)piperidin-4-yl)-1H-indol-5-yl)amino)-4-(ethylamino)imidazo[2,1-f][1,2,4]triazine-7-carbonitrile]	0.32
COCC(O)CN1CCN(c2cc(C(F)F)cc(Nc3nc(NC4CC4)c4ncc(C#N)n4n3)c2Cl)CC1 (racemic) [Example 250, (+/−) 2-((2-chloro-5-(difluoromethyl)-3-(4-(2-hydroxy-3-methoxypropyl)-1-piperazinyl)phenyl)amino)-4-(cyclopropylamino)imidazo[2,1-f][1,2,4]triazine-7-carbonitrile]	0.73
N#Cc1cc(Nc2nc(NC3CC3)c3ncc(C#N)n3n2)c(F)c(N2CCN(C3CNC3)CC2)c1 [Example 550, 2-((3-(4-(azetidin-3-yl)piperazin-1-yl)-5-cyano-2-fluorophenyl)amino)-4-(cyclopropylamino)imidazo[2,1-f][1,2,4]triazine-7-carbonitrile]	0.83
COCCN1CCN(Cc2cc(C#N)cc(Nc3nc(NC4CC4)c4ncc(C#N)n4n3)c2Cl)CC1 [Example 476, 2-[(2-chloro-5-cyano-3-{[4-(2-methoxyethyl)piperazin-1-yl]methyl}phenyl)amino]-4-(cyclopropylamino)imidazo[2,1-f][1,2,4]triazine-7-carbonitrile]	2.98
N#Cc1cc(Nc2nc(NC3CC3)c3ncc(C#N)n3n2)c(Cl)c(N2CCN3CCC2C3)c1 (stereo not drawn) [Example 8, 2-((2-chloro-5-cyano-3-(1,4-diazabicyclo[3.2.1]oct-4-yl)phenyl)amino)-4-(cyclopropylamino)imidazo [2,1-f][1,2,4]triazine-7-carbonitrile]	0.53
CCNc1nc(Nc2ccc3c(c2)c(C#N)cn3C2CCN([C@H]3CS(=O)(=O)C[C@@H]3O)CC2)nn2c(C#N)cnc12 [Example 828, 2-((3-cyano-1-(1-((3R,4R)-4-hydroxy-1,1-dioxidotetrahydrothiophen-3-yl)piperidin-4-yl)-1H-indol-5-yl)amino)-4-(ethylamino)imidazo[2,1-f][1,2,4]triazine-7-carbonitrile]	0.36
COC(=O)NC1CCN(c2cc(C#N)cc(Nc3nc(NC4CC4)c4ncc(C#N)n4n3)c2Cl)C[C@@H]1N(C)CC#N (stereo in doubt) [Example 764, methyl N-[(3S,4S)-1-(2-chloro-5-cyano-3-{[7-cyano-4-(cyclopropylamino)imidazo [2,1-f][1,2,4]triazin-2-yl]amino}phenyl)-3-[(cyanomethyl)(methyl)amino]piperidin-4-yl]carbamate]	2
COC(=O)N[C@@H]1CCN(c2cc(C(F)F)cc(Nc3nc(NC4CC4)c4ncc(C#N)n4n3)c2Cl)C[C@H]1O [Example 243, methyl (3R,4R)-1-(2-chloro-3-(7-cyano-4-(cyclopropylamino)imidazo[1,2-f][1,2,4]triazin-2-ylamino)-5-(difluoromethyl)phenyl)-3-hydroxypiperidin-4-ylcarbamate]	2.08
N#Cc1cc(Nc2nc(NC3CC3)c3ncc(C#N)n3n2)c(Cl)c(N2CCC(N[C@H]3COC[C@@H]3O)CC2)c1 (racemic) [Example 135, (+/−) 2-((2-chloro-5-cyano-3-(4-(((3S,4R)-4-hydroxytetrahydro-3-furanyl)amino)-1-piperidinyl)phenyl)amino)-4-(cyclopropylamino)imidazo [2,1-f][1,2,4]triazine-7-carbonitrile]	0.68
CC(CCc1cc(Cl)c(Nc2nc(NC3CC3)c3ncc(C#N)n3n2)cc1C#N)N1CC(O)C1 (stereo not drawn) [Example 724, 2-({2-chloro-5-cyano-4-[3-(3-hydroxyazetidin-1-yl)butyl]phenyl}amino)-4-(cyclopropylamino)imidazo [2,1-f][1,2,4]triazine-7-carbonitrile]	1.51
CCNc1nc(Nc2cc(C#N)cc(N3CC[C@@H](NC(=O)OC)[C@@H](N(C)C4COC4)C3)c2Cl)nn2c(C#N)cnc12 [Example 751, methyl ((3S,4R)-1-(2-chloro-5-cyano-3-((7-cyano-4-(ethylamino)imidazo[2,1-f][1,2,4]triazin-2-yl)amino)phenyl)-3-(methyl(oxetan-3-yl)amino)piperidin-4-yl)carbamate]	1.3
N#Cc1cc(Nc2nc(NC3CC3)c3ncc(C#N)n3n2)c(Cl)c(N2CCC3NCCC3C2)c1 (racemic) [Example 442, 2-((2-chloro-5-cyano-3-(hexahydro-1H-pyrrolo[3,2-c]pyridin-5(6H)-yl)phenyl)amino)-4-(cyclopropylamino)imidazo[2,1-f][1,2,4]triazine-7-carbonitrile]	0.77
N#Cc1cc(Nc2nc(NC3CC3)c3ncc(C#N)n3n2)c(Cl)c(C(O)C2CN(C3COC3)C2)c1 (stereo not drawn) [Example 656, 2-((2-chloro-5-cyano-3-(hydroxy(1-(oxetan-3-yl)azetidin-3-yl)methyl)phenyl)amino)-4-(cyclopropylamino)imidazo[2,1-f][1,2,4]triazine-7-carbonitrile]	6.73
N#Cc1cc(C=O)c(Cl)c(Nc2nc(NC3CC3)c3ncc(C#N)n3n2)c1 [Example 400, 2-((2-chloro-5-cyano-3-formylphenyl)amino)-4-(cyclopropylamino)imidazo[2,1-f][1,2,4]triazine-7-carbonitrile]	0.49
